Legend:
[1] = target: T1, human TRPV1 receptor (hTRPV1) (Homo sapiens (Human), UniProt Q8NER1); assay: Acid activation assay (pH 5.0, FLIPR intracellular Ca2+); type: cell-based; conditions: 37.5 μM compound, percentage of the maximal pH 5.0-induced response remaining; for remaining activity at 37.5 µM: read-out: hTRPV1 H+ (max % remain)
Protocol: Dulbecco's modified Eagle's medium (DMEM) with 4.5 mg/mL D-glucose, fetal bovine serum, L-glutamine, and 2-morpholinoethanesulfonic acid (MES) were purchased from Sigma-Aldrich Co. (St. Louis, Mo.). Dulbecco's phosphate-buffered saline (DPBS) with Ca^2+, Mg^2+, and 1 mg/mL D-glucose (pH 7.4), Geneticin®, 0.25% trypsin-1 mM EDTA, and penicillin-streptomycin were purchased from Invitrogen Corp. (Carlsbad, Calif.). The FLIPR® Calcium 4 assay kit was purchased from Molecular Devices (Sunnyvale, Calif.).
(§1) The cDNAs for the human TRPV1 receptor (hTRPV1) were isolated by reverse transcriptase-polymerase chain reaction (RT-PCR) from human small intestine poly A+ RNA supplied by Clontech (Palo Alto, Calif.) using primers designed surrounding the initiation and termination codons identical to the published sequences (Hayes et al. Pain 2000, 88, 205-215). The resulting cDNA PCR products were subcloned into pCIneo mammalian expression vector (Promega) and fully sequenced using fluorescent dye-terminator reagents (Prism, Perkin-Elmer Applied Biosystems Division) and a Perkin-Elmer Applied Biosystems Model 373 DNA sequencer or Model 310 genetic analyzer. Expression plasmids encoding the hTRPV1 cDNA were transfected individually into 1321N1 human astrocytoma cells using Lipofectamine®. Forty-eight hours after transfection, the neomycin-resistant cells were selected with growth medium containing 800 μg/mL Geneticin (Gibco BRL). Surviving individual colonies were isolated and screened for TRPV1 receptor activity. Cells expressing recombinant homomeric TRPV1 receptors were maintained at 37° C. in DMEM containing 4 mM L-glutamine, 300 μg/mL G418 (Cal-biochem) and 10% fetal bovine serum under a humidified 5% CO2 atmosphere.
The functional activity of compounds at the TRPV1 receptor was determined by measurement of intracellular Ca^2+ levels ([Ca^2+]i) using the Fluorescence Imaging Plate Reader (FLIPR)^TETRA®. All compounds were tested over a 12-point one-half-log concentration range. Compound stocks, 10 mM, were prepared in DMSO, and diluted serially across a 384-well plate using a Bravo BenchCel workstation (Agilent Technologies, Santa Clara, Calif.).
On the day of the experiment growth medium was removed, and the no-wash FLIPR®Calcium-4 dye (λEX=470-495 nm, λEM=515-575 nm) was added to each well using the Multidrop® dispenser. Cells were incubated for 90-120 minutes in the dark at 25° C. Test compounds were dissolved in DMSO, and plates were prepared using an Agilent Bravo workstation (Agilent Technologies Inc., Santa Clara, Calif.). Compounds were added to the cells 3 minutes prior to the addition of a pH 5.0 solution. Reagents were delivered at a rate of 40 μL/sec, and the final assay volume was 80 μL. Acidic pH solutions were prepared by titration of DPBS/MES with 1 N HCl. The intensity of the fluorescence was captured and digitally transferred to an interfaced PC.

[2] = target: T1, human TRPV1 receptor (hTRPV1); assay: Capsaicin activation assay (FLIPR intracellular Ca2+); type: cell-based; conditions: inhibition of capsaicin-induced intracellular Ca2+ increase; compounds added 3 minutes prior to capsaicin; read-out: hTRPV1 cap. IC50
Protocol: Dulbecco's modified Eagle medium (D-MEM) (with 4.5 mg/mL glucose) and fetal bovine serum were obtained from Hyclone Laboratories, Inc. (Logan, Utah). Dulbecco's phosphate-buffered saline (D-PBS) (with 1 mg/mL glucose and 3.6 mg/l Na pyruvate, without phenol red), L-glutamine, hygromycin B, and Lipofectamine® were obtained from Life Technologies (Grand Island, N.Y.). G418 sulfate was obtained from Calbiochem-Novabiochem Corp. (San Diego, Calif.). Capsaicin (8-methyl-N-vanillyl-6-nonenamide) was obtained from Sigma-Aldrich, Co. (St. Louis, Mo.). Fluo-4 AM (N-[4-[6-[(acetyloxy)methoxy]-2,7-difluoro-3-oxo-3H-xanthen-9-yl]-2-[2-[2-[bis[2-[(acetyloxy)methoxy]-2-oxyethyl]amino]-5-methylphenoxy]ethoxy]phenyl]-N-[2-[(acetyloxy)methoxy]-2-oxyethyl]-glycine, (acetyloxy)methyl ester) was purchased from Molecular Probes (Eugene, Oreg.).
as §1, with “D-MEM” for “DMEM”
The functional activity of compounds at the TRPV1 receptor was determined by measurement of intracellular Ca^2+ levels ([Ca^2]i) using the Fluorescence Imaging Plate Reader (FLIPR)^TETRA®. All compounds were tested over a 12-point one-third-log concentration range. Compound stocks, 10 mM, were prepared in DMSO, and diluted serially across a 384-well plate using a Bravo BenchCel workstation (Agilent Technologies, Santa Clara, Calif.). A stock concentration of capsaicin (10 mM) was made in DMSO, and diluted in D-PBS to a final concentration of 200 nM (4×). On the day prior to the experiment, recombinant HEK293 cells that stably express either human or rat TRPV1 (hTRPV1-3) were removed from tissue culture flasks and plated in growth medium into black-walled clear-bottom 384-well Biocoat™ poly-D-lysine assay plates (BD Biosciences, Bedford, Mass.) using a Multidrop® dispenser (ThermoScientific, Waltham, Mass.). On the day of the experiment, growth medium was removed, and the no-wash FLIPR® Calcium-4 dye (λEX=470-495 nm, λEM=515-575 nm; Molecular Devices, Sunnyvale, Calif.) was added to each well using the Multidrop® dispenser. Cells were incubated for 90-120 minutes in the dark at room temperature. Test compounds were added to the cells 3 minutes prior to the addition of 200 nM capsaicin (4×), and the final assay volume was 80 μL. Fluorescence readings were made at 1 to 5 second intervals over the course of the experimental run. The peak increase in relative fluorescence units (minus baseline) was calculated, and expressed as a percentage of the 50 nM capsaicin (control) response. Curve-fits of the data were solved using a four-parameter logistic Hill equation in GraphPad Prism® (GraphPad Software, Inc., San Diego, Calif.), and IC50 values (concentration of the test compounds that inhibits 50% of the intracellular Ca^2+ concentration increase induced by capasin) were calculated.

T1 sequence (Q8NER1 whole entry): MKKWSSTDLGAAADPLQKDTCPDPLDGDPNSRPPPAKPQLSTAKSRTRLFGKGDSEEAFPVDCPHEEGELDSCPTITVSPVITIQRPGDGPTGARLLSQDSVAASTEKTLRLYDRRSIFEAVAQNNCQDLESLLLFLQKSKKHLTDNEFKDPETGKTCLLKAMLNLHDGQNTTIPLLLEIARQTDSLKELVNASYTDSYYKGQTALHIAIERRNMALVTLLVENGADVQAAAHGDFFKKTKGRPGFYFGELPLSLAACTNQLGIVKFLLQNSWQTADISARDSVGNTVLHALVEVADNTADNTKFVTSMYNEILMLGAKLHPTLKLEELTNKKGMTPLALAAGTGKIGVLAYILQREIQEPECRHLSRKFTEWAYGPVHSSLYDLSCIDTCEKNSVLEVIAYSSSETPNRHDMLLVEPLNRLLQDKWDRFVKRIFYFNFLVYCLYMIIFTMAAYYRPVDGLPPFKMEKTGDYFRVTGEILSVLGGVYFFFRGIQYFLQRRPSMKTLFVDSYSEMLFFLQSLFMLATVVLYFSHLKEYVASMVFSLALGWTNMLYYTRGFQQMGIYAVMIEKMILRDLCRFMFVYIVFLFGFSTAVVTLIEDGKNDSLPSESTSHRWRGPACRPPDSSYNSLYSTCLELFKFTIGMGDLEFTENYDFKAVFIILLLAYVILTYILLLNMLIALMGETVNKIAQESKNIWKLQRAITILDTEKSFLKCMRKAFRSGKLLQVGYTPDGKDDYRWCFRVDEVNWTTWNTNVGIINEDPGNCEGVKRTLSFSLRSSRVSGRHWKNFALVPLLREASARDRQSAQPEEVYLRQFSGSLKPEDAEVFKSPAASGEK

remaining activity at 37.5 µM [1] [%]	IC50 [2] [µM]	hTRPV1 H+ (max % remain) [1] [%]	SMILES
59	22.5		CS(=O)(=O)Nc1ccc(CNC(=O)N[C@@H]2CC(CF)(CF)Oc3ccccc32)cc1F [Example 27, N-{4-[({[(4R)-2,2-bis(fluoromethyl)-3,4-dihydro-2H-chromen-4-yl]carbamoyl}amino)methyl]-2-fluorophenyl}methanesulfonamide]
71	5.28		C[C@]1(C(F)F)C[C@@H](NC(=O)NCc2ccc(NS(C)(=O)=O)c(F)c2)c2ccccc2O1 [Example 41, N-{4-[({[(2R,4R)-2-(difluoromethyl)-2-methyl-3,4-dihydro-2H-chromen-4-yl]carbamoyl}amino)methyl]-2-fluorophenyl}methanesulfonamide]
18	0.747		CC1(C)C[C@@H](NC(=O)NCc2ccc(NS(C)(=O)=O)c(F)c2)c2ccc(F)cc2O1 [Example 7, N-{2-fluoro-4-[({[(4R)-7-fluoro-2,2-dimethyl-3,4-dihydro-2H-chromen-4-yl]carbamoyl}amino)methyl]phenyl}methanesulfonamide]
77	3.8		CS(=O)(=O)Nc1ccc(CNC(=O)N[C@@H]2CCOc3c2cccc3C(F)(F)F)cc1F [Example 31, N-{2-fluoro-4-[({[(4R)-8-(trifluoromethyl)-3,4-dihydro-2H-chromen-4-yl]carbamoyl}amino)methyl]phenyl}methanesulfonamide]
	23.1	101	CS(=O)(=O)Nc1ccc(CNC(=O)N[C@H]2CC3(CCC3)Oc3ccc(F)cc32)cc1F [Example 33, N-{2-fluoro-4-[({[(45)-6-fluoro-3,4-dihydrospiro[chromene-2,1′-cyclobutan]-4-yl]carbamoyl}amino)methyl]phenyl}methanesulfonamide]
63	0.345		C[C@]1(CF)C[C@@H](NC(=O)NCc2ccc(NS(C)(=O)=O)c(F)c2)c2ccc(C(F)(F)F)cc2O1 [Example 38, N-{2-fluoro-4-[({[(2R,4R)-2-(fluoromethyl)-2-methyl-7-(trifluoromethyl)-3,4-dihydro-2H-chromen-4-yl]carbamoyl}amino)methyl]phenyl}methanesulfonamide]
79	22.8		CS(=O)(=O)Nc1ccc(CNC(=O)N[C@@H]2CC(CF)(CF)Oc3c(F)cc(F)cc32)cc1F [Example 16, N-{4-[({[(4R)-6,8-difluoro-2,2-bis(fluoromethyl)-3,4-dihydro-2H-chromen-4-yl]carbamoyl}amino)methyl]-2-fluorophenyl}methanesulfonamide]
73	2.9		CS(=O)(=O)Nc1ccc(CNC(=O)N[C@@H]2CC(CF)(CF)Oc3cc(Cl)ccc32)cc1F [Example 6, N-{4-[({[(4R)-7-chloro-2,2-bis(fluoromethyl)-3,4-dihydro-2H-chromen-4-yl]carbamoyl}amino)methyl]-2-fluorophenyl}methanesulfonamide]
43	6.41		CS(=O)(=O)Nc1ccc(CNC(=O)N[C@@H]2CC(CF)(CF)Oc3cc(F)ccc32)cc1F [Example 43, N-{2-fluoro-4-[({[(4R)-7-fluoro-2,2-bis(fluoromethyl)-3,4-dihydro-2H-chromen-4-yl]carbamoyl}amino)methyl]phenyl}methanesulfonamide]
24	0.358		CC1(C)C[C@@H](NC(=O)NCc2ccc(NS(C)(=O)=O)c(F)c2)c2ccc(F)c(Cl)c2O1 [Example 23, N-{4-[({[(4R)-8-chloro-7-fluoro-2,2-dimethyl-3,4-dihydro-2H-chromen-4-yl]carbamoyl}amino)methyl]-2-fluorophenyl}methanesulfonamide]
91	16.5		CS(=O)(=O)Nc1ccc(CNC(=O)N[C@@H]2CCc3cc(F)ccc32)cc1F [Example 4, N-{2-fluoro-4-[({[(1R)-5-fluoro-2,3-dihydro-1H-inden-1-yl]carbamoyl}amino)methyl]phenyl}methanesulfonamide]
70	0.602		CC1(C)C[C@@H](NC(=O)NCc2ccc(NS(C)(=O)=O)c(F)c2)c2ccc(Cl)cc2O1 [Example 25, N-{4-[({[(4R)-7-chloro-2,2-dimethyl-3,4-dihydro-2H-chromen-4-yl]carbamoyl}amino)methyl]-2-fluorophenyl}methanesulfonamide]
74	7.56		CC1(C)C[C@@H](NC(=O)NCc2ccc(NS(C)(=O)=O)c(F)c2)c2ccccc2O1 [Example 21, N-{4-[({[(4R)-2,2-dimethyl-3,4-dihydro-2H-chromen-4-yl]carbamoyl}amino)methyl]-2-fluorophenyl}methanesulfonamide]
85	0.863		CS(=O)(=O)Nc1ccc(CNC(=O)N[C@@H]2CC(CF)(CF)Oc3cc(OC(F)(F)F)ccc32)cc1F [Example 15, N-{4-[({[(4R)-2,2-bis(fluoromethyl)-7-(trifluoromethoxy)-3,4-dihydro-2H-chromen-4-yl]carbamoyl}amino)methyl]-2-fluorophenyl}methanesulfonamide]

— patent publication US8796328B2, “TRPV1 antagonists” (AbbVie Inc., priority 2012, dated 2014)
